Experiments:
Assay in all cases: Antifungal activity, MIC by agar dilution method
[1] = tested on: C. albicans TIMM 0171; format: cell-based, Candida albicans; conditions: for MIC: C. albicans TIMM 0171, Sabouraud-dextrose agar medium, 30° C. for 2 days
Description: (§1) The minimum inhibitory concentration (MIC) values were determined after incubation at 30° C. for 2 days.

[2] = tested on: C. grabrata TIMM 1062; format: cell-based; conditions: Sabouraud-dextrose agar medium, 30° C. for 2 days
Description: as §1

[3] = tested on: C. kefyr TIMM 0301; format: cell-based; conditions: Sabouraud-dextrose agar medium, 30° C. for 2 days
Description: as §1

[4] = tested on: Candida albicans TIMM 0136; format: cell-based; conditions: Sabouraud-dextrose agar medium, 30° C. for 2 days
Description: as §1

[5] = tested on: Cryptococcus neoformans TIMM 0354; format: cell-based; conditions: Sabouraud-dextrose agar medium, 30° C. for 2 days
Description: as §1

How did the MIC [1] turn out when “cyclo(L-RONva-L-MeVal-L-Leu-L-βHOMeVal-D-Hmp-L-MeVal-L-Phe-L-MePhe-L- Pro) (R: n-hexanoyl) [Compound 37]” was run?
The MIC was 0.10 µg/mL.

And the MIC [2]?
The MIC was 0.39 µg/mL.

And the MIC [3]?
Its MIC is 0.78 µg/mL.

What about the MIC [4] of the same substance?
Its MIC is 0.10 µg/mL.

What about the MIC [5] of the same substance?
Its MIC is 12.5 µg/mL.

“cyclo(L-GluOR-L-MeVal-L-Leu-L-βHOMeVal-D-Hmp-L-MeVal-L-Phe-L-MePhe-L- Pro) (R: n-hexyl) [Compound 31]” was tested. Which MIC [1] did it give?
The MIC was 0.20 µg/mL.

And the MIC [2]?
The MIC was 1.56 µg/mL.

And the MIC [3]?
The MIC was 3.12 µg/mL.

And the MIC [4]?
Its MIC is 0.39 µg/mL.

What about the MIC [5] of the same substance?
The MIC was over 25 µg/mL.

“cyclo(L-aIle-L-MeVal-L-GluOR-L-βHOMeVal-D-Hmp-L-MeVal-L-Phe-L-MePhe-L-Pro) (R: cHex) [Compound 38]” was tested. Which MIC [1] did it give?
Its MIC is 0.013 µg/mL.

And the “activity against Candida albicans TIMM 0171 compared with compound 1” value ([1]; comparison in words)?
Its value is “higher activity against Candida albicans TIMM 0171 than compound 1”.

What about the MIC [2] of the same substance?
Its MIC is 1.56 µg/mL.

What about the MIC [3] of the same substance?
The MIC was 3.12 µg/mL.

And the MIC [4]?
Its MIC is 0.20 µg/mL.

What about the MIC [5] of the same substance?
The MIC was over 25 µg/mL.

“cyclo(L-GluOR-L-MeVal-L-Leu-L-βHOMeVal-D-Hmp-L-MeVal-L-Phe-L-MePhe-L- Pro) (R: trans-3-hexenyl) [Compound 35]” was tested. Which MIC [1] did it give?
Its MIC is 0.78 µg/mL.

What about the MIC [2] of the same substance?
Its MIC is 0.39 µg/mL.

And the MIC [3]?
The MIC was 1.56 µg/mL.

And the MIC [4]?
The MIC was 0.20 µg/mL.

What about the MIC [5] of the same substance?
The MIC was over 25 µg/mL.

For “cyclo(L-GluOR-L-MeVal-L-Leu-L-βHOMeVal-D-Hmp-L-MeVal-L-Phe-L-MePhe-L- Pro) (R: cis-3-hexenyl) [Compound 34]”, which MIC [1] is on record?
Its MIC is 0.10 µg/mL.

And the MIC [2]?
Its MIC is 0.39 µg/mL.

And the MIC [3]?
The MIC was 0.78 µg/mL.

What about the MIC [4] of the same substance?
The MIC was 0.20 µg/mL.

What about the MIC [5] of the same substance?
The MIC was over 25 µg/mL.

“cyclo(L-GluOR-L-MeVal-L-Leu-L-βHOMeVal-D-Hmp-L-MeVal-L-Phe-L-MePhe-L- Pro) (R: n-decyl) [Compound 33]” was tested. Which MIC [1] did it give?
Its MIC is 1.56 µg/mL.

And the MIC [2]?
Its MIC is over 25 µg/mL.

And the MIC [3]?
The MIC was over 25 µg/mL.

What about the MIC [4] of the same substance?
The MIC was 1.56 µg/mL.

And the MIC [5]?
Its MIC is over 25 µg/mL.

Which MIC [1] does the source give for “cyclo(L-GluOR-L-MeVal-L-Leu-L-βHOMeVal-D-Hmp-L-MeVal-L-Phe-L-MePhe-L- Pro) (R: n-octyl) [Compound 32]” here?
The MIC was 0.78 µg/mL.

And the MIC [2]?
The MIC was 1.56 µg/mL.

And the MIC [3]?
Its MIC is 6.25 µg/mL.

And the MIC [4]?
Its MIC is 0.78 µg/mL.

What about the MIC [5] of the same substance?
The MIC was over 25 µg/mL.

With “cyclo(L-aIle-L-ROMeNva-L-Leu-L-βHOMeVal-D-Hmp-L-MeVal-L-Phe-L-MePhe-L-Pro) (R: Bzl) [Compound 27]” as the substance, how does the MIC [1] read?
Its MIC is 0.78 µg/mL.

What about the MIC [2] of the same substance?
The MIC was over 25 µg/mL.

What about the MIC [3] of the same substance?
The MIC was 3.12 µg/mL.

And the MIC [4]?
Its MIC is 0.78 µg/mL.

What about the MIC [5] of the same substance?
Its MIC is over 25 µg/mL.

From patent US5633345A, “Cyclic peptides” (priority 1992, dated 1997)
